Source: US12668599B2, “Heterobifunctional compounds and methods of treating disease” (Halda Therapeutics OpCo, Inc., priority 2023, dated 2026)

Experiments:
VCaP cells = assay: Cellular growth inhibition assay for VCaP cells (CellTiter-Glo 2.0, 72 hours); assay type: cell-based, human; conditions: for GI50: CellTiter-Glo 2.0; for Ratio of GI50's: GI50 of the top compound in the pair divided by GI50 of the lower compound
Experimental: Exemplary compounds were tested for ability to inhibit the proliferation of VCaP cells. VCap cells are a commercially available human prostate cancer cell line.
VCaP cells were purchased from American Type Cell Culture (ATCC Cat #CRL2876) and then seeded on poly-D-lysine coated, black clear-bottom 384-well plates at 5000/well in 25 μL Dulbecco's Modified Eagle Medium (DMEM) supplemented with 10% w/w Fetal bovine serum (FBS) and 1% w/w Pen-Strep. Pen-Strep is a commercially available mixture of penicillin G and streptomycin, which is used in mammalian cell culture media to prevent bacterial contamination. Dulbecco's Modified Eagle Medium (DMEM) supplemented with 10% w/w fetal bovine serum (FBS) and 1% w/w Pen-Strep is herein referred to as Treatment Medium. Following seeding of cells in the plates, the plates were spun at 300×g for 30 seconds, then equilibrated to room temperature for 30 minutes, and then deposited in a humidified tissue culture incubator maintained at 37° C. with 5% CO2.
(§1) At 24 hours after seeding of the cells, dilutions of test compound were prepared in DMSO and dissolved in Treatment Medium, to achieve a final DMSO concentration of 0.5% w/w, thereby providing the Test Compound Solution. A 25 μL aliquot of the Test Compound Solution was added to cells in the well plates. An equal volume of a solution containing DMSO and Treatment Medium was used as a negative control. Following treatment of cells with Test Compound Solution or said equal volume of a solution containing DMSO and Treatment Medium, the plates were spun at 300×g for 30 seconds, and then left in an incubator for 72 hours.
(§2) At the end of the treatment duration, cell viability was quantified with CellTiter-Glo 2.0 reagent (Promega Cat #G9243). For this purpose, plates were equilibrated to room temperature for 30 minutes, and then 25 μL of CellTiter-Glo 2.0 reagent was added to cells in the plate wells. Plates were then agitated on a shaker for two minutes at 500 rpm and subsequently incubated at room temperature for 10 minutes. Following incubation, the plates were spun at 3000×g for 30 seconds, then sealed with an optical adhesive cover, and luminescence readings were measured with an En Vision Plate Reader.
(§3) Data was normalized using zero luminescence for baseline. A four-parameter non-linear regression curve fit was applied to dose-response data in GraphPad Prism data analysis software to determine the half-maximal growth inhibitory concentration (GI50) for each test compound.

[1] = system: T-Rex 293 cell line SC3 cells having increased expression of androgen receptor protein due to exposure to doxycycline; assay: Cellular growth inhibition, T-Rex 293 SC3 cells with doxycycline-induced androgen receptor (CellTiter-Glo 2.0, 72 hours); assay type: cell-based; conditions: for GI50: T-Rex 293 SC3 cells with 10 ng/ml doxycycline (increased androgen receptor expression), 72 hours, CellTiter-Glo 2.0; for Ratio of GI50's: GI50 of the top compound in the pair divided by GI50 of the lower compound, T-Rex 293 SC3 cells with doxycycline-induced androgen receptor
Experimental: (§4) Ability of the test compounds to inhibit proliferation of the foregoing cell types was evaluated according to the procedures set forth below.
(§5) The doxycycline-inducible androgen receptor protein expressing cell line was established using the following protocol: T-Rex 293 cells were purchased from Invitrogen (Cat #R71007) and transfected using Lipofectamine 2000 with the wild-type androgen receptor protein sequence cloned into the pcDNA4/TO vector. Transfected cells were selected using 400 μg/mL Zeocin (Invitrogen Cat #R25001). Following selection, single clones were raised and maintained in Dulbecco's Modified Eagle Medium (DMEM) supplemented with 10% w/w Tetracycline-free fetal bovine serum (FBS) and 250 μg/mL Zeocin. Clones were analyzed for expression of androgen receptor protein in the presence and absence of 10 ng/ml doxycycline (Sigma Cat #D9891), and a single doxycycline-inducible clone (hereinafter “SC3”) was selected for use in downstream assays.
(§6) The SC3 cells were seeded on poly-D-lysine coated, black clear-bottom 384-well plates at 2500/well, in 25 μL Phenol Red Free Dulbecco's Modified Eagle Medium (DMEM) supplemented with 10% w/w charcoal-dextran treated fetal bovine serum (FBS) and 1% w/w pen-strep, with or without 10 ng/ml doxycycline. Pen-Strep is a commercially available mixture of penicillin G and streptomycin, which is used in mammalian cell culture media to prevent bacterial contamination. Phenol Red Free Dulbecco's Modified Eagle Medium (DMEM) supplemented with 10% w/w charcoal-dextran treated fetal bovine serum (FBS) and 1% w/w pen-strep, with or without 10 ng/mL doxycycline is herein referred to as Treatment Medium. Following seeding of cells in the plates, the plates were spun at 300×g for 30 seconds, then equilibrated to room temperature for 30 minutes, and then deposited in a humidified tissue culture incubator maintained at 37° C. with 5% CO2.
as §1, §2, §3

[2] = system: T-Rex 293 cell line SC3 cells lacking increased expression of androgen receptor protein; assay: Cellular growth inhibition, T-Rex 293 SC3 cells without doxycycline (CellTiter-Glo 2.0, 72 hours); assay type: cell-based; conditions: T-Rex 293 SC3 cells not exposed to doxycycline (no increased androgen receptor expression)
Experimental: as §4, §5, §6, §1, §2, §3

Structure (SMILES): COc1cc(O[C@H]2CC[C@H](NC(=O)c3ccc(N4CCC5(CCC(c6ccc(C7=N[C@@H](C)c8nnc(C)n8-c8sc(C)c(C)c87)cc6OC)CC5)C4)nn3)CC2)ccc1C#N (stereo partly shown) [Compound I-67]
- GI50 (VCaP cells; 72 hours): < 500 nM
- GI50 [1]: < 500 nM
- GI50 [2]: < 500 nM

Structure (SMILES): COc1cc(O[C@H]2CC[C@H](NC(=O)c3ccc(N4CCC5(CCC(c6ccc(C7=N[C@@H](C)c8nnc(C)n8-c8sc(C)c(C)c87)cc6)C5)C4)nn3)CC2)ccc1C#N (stereo partly shown) [Compound I-97]
- GI50 (VCaP cells; 72 hours): < 500 nM
- GI50 [1]: < 500 nM
- GI50 [2]: < 500 nM

Structure (SMILES): COc1cc(O[C@H]2CC[C@H](NC(=O)c3cnc(N4CCC5(CCC(c6ccc(C7=N[C@@H](C)c8nnc(C)n8-c8sc(C)c(C)c87)cc6)CC5)C4)cn3)CC2)ccc1C#N (stereo partly drawn) [Compound I-54, N-[4-(4-cyano-3-methoxy-phenoxy)cyclohexyl]-5-[8-[4-[(9S)-4,5,9,13-tetramethyl-3-thia-1,8,11,12-tetrazatricyclo[8.3.0.0^2,6]trideca-2 (6),4,7,10,12-pentaen-7-yl]phenyl]-2-azaspiro[4.5]decan-2-yl]pyrazine-2-carboxamide]
- GI50 (VCaP cells; Homo sapiens, VCaP, 72 h): < 500 nM
- GI50 [1]: < 500 nM
- GI50 ([2]; 72 h): < 500 nM

Structure (SMILES): COCC[C@@H]1N=C(c2ccc(C3CCC4(CC3)CCN(c3ccc(C(=O)NC5CCC(Oc6ccc(C#N)c(OC)c6)CC5)nn3)C4)cc2)c2c(sc(C)c2C)-n2c(C)nnc21 (stereo partly drawn) [Compound I-29, N-[4-(4-cyano-3-methoxy-phenoxy)cyclohexyl]-6-[8-[4-[(9S)-9-(2-methoxyethyl)-4,5,13-trimethyl-3-thia-1,8,11,12-tetrazatricyclo[8.3.0.0^2,6]trideca-2 (6),4,7,10,12-pentaen-7-yl]phenyl]-2-azaspiro[4.5]decan-2-yl]pyridazine-3-carboxamide]
- GI50 (VCaP cells; Homo sapiens, VCaP, 72 h): < 500 nM
- GI50 [1]: < 500 nM
- GI50 ([2]; 72 h): < 500 nM

Structure (SMILES): COc1cc(O[C@H]2CC[C@H](NC(=O)c3ccc(N4C[C@H]5CN(c6ccc(C7=N[C@@H](C)c8nnc(C)n8-c8sc(C)c(C)c87)cc6)C[C@H]5C4)nn3)CC2)ccc1C#N [Compound I-47]
- GI50 (VCaP cells; Homo sapiens, VCaP, 72 h): < 500 nM
- GI50 [1]: < 500 nM
- GI50 ([2]; 72 h): < 500 nM

Structure (SMILES): Cc1sc2c(c1C)C(c1ccc(N3CCC4(CC3)CCN(c3ccc(C(=O)N[C@H]5CC[C@H](Oc6ccc(C#N)c(Cl)c6)CC5)nn3)C4)cc1)=N[C@@H](C)c1nnc(C)n1-2 [H, reference compound]
- Ratio of GI50's (VCaP cells): 1.8
- Ratio of GI50's [1]: 8.4

Structure (SMILES): COc1cc(O[C@H]2CC[C@H](NC(=O)c3ccc(N4CCC5(CCN(c6ccc(C7=N[C@@H](C)c8nnc(C)n8-c8sc(C)c(C)c87)c(F)c6)CC5)C4)nn3)CC2)ccc1C#N [Compound I-45, N-[4-(4-cyano-3-methoxy-phenoxy)cyclohexyl]-6-[8-[3-fluoro-4-[(9S)-4,5,9,13-tetramethyl-3-thia-1,8,11,12-tetrazatricyclo[8.3.0.0^2,6]trideca-2 (6),4,7,10,12-pentaen-7-yl]phenyl]-2,8-diazaspiro[4.5]decan-2-yl]pyridazine-3-carboxamide]
- GI50 (VCaP cells; Homo sapiens, VCaP, 72 h): < 500 nM
- GI50 [1]: < 500 nM
- GI50 ([2]; 72 h): < 500 nM

Structure (SMILES): COc1cc(O[C@H]2CC[C@H](NC(=O)c3ccc(N4CCC5(CCCN(c6ccc(C7=N[C@@H](C)c8nnc(C)n8-c8sc(C)c(C)c87)cc6)C5)C4)nn3)CC2)ccc1C#N (stereo partly shown) [Compound I-98]
- GI50 ([2]; 72 h): < 500 nM

Structure (SMILES): Cc1sc2c(c1C)C(c1ccc(CC3CC4(CCN(c5ccc(C(=O)N[C@H]6CC[C@H](Oc7ccc(C#N)c(Cl)c7)CC6)nn5)CC4)C3)cc1)=N[C@@H](Cc1ncco1)c1nnc(C)n1-2 [F, reference compound]
- Ratio of GI50's (VCaP cells): 1.9
- Ratio of GI50's [1]: 3.8

Structure (SMILES): COc1cc(O[C@H]2CC[C@H](NC(=O)c3ccc(N4CCC5(CCN(c6ccc(C7=N[C@@H](C)c8nnc(C)n8-c8sc(C)c(C)c87)cc6)CC56CCC6)C4)nn3)CC2)ccc1C#N (stereo partly shown) [Compound I-132]
- GI50 ([2]; 72 h): < 500 nM

Structure (SMILES): COc1cc(O[C@H]2CC[C@H](NC(=O)c3ccc(N4CCC5(CCCN(c6ccc(C7=N[C@@H](C)c8nnc(C)n8-c8sc(C)c(C)c87)cc6)C5)C4)nn3)CC2)ccc1C#N (stereo partly drawn) [Compound I-82, N-((1r,4r)-4-(4-cyano-3-methoxyphenoxy)cyclohexyl)-6-(7-(4-((S)-2,3,6,9-tetramethyl-6H-thieno[3,2-f][1,2,4]triazolo[4,3-a][1,4]diazepin-4-yl)phenyl)-2,7-diazaspiro[4.5]decan-2-yl) pyridazine-3-carboxamide]
- GI50 (VCaP cells; Homo sapiens, VCaP, 72 h): < 500 nM
- GI50 [1]: < 500 nM

Structure (SMILES): Cc1sc2c(c1C)C(c1ccc(C#CC3CC4(C3)CN(c3ccc(C(=O)N[C@H]5CC[C@H](Oc6ccc(C#N)c(Cl)c6)CC5)nn3)C4)cc1F)=NC(Cc1ncco1)c1nnc(C)n1-2 (stereo partly shown) [K, reference compound]
- Ratio of GI50's (VCaP cells): 1.5
- Ratio of GI50's [1]: 2.0

Structure (SMILES): COc1cc(O[C@H]2CC[C@H](NC(=O)c3ccc(N4CCCC5(CCN(c6ccc(C7=N[C@@H](C)c8nnc(C)n8-c8sc(C)c(C)c87)cc6)CC5)C4)nn3)CC2)ccc1C#N [Compound I-18]
- GI50 (VCaP cells; Homo sapiens, VCaP, 72 h): < 500 nM

Structure (SMILES): COc1cc(O[C@H]2CC[C@H](NC(=O)c3ccc(N4CCCC5(CCN(c6ccc(C7=N[C@@H](C)c8nnc(C)n8-c8sc(C)c(C)c87)cc6)CC5)C4)nn3)CC2)ccc1C#N [Compound I-26]
- GI50 [1]: < 500 nM
- GI50 ([2]; 72 h): < 500 nM

Structure (SMILES): Cc1sc2c(c1C)C(c1ccc(CC3CC4(CCN(c5ncc(C(=O)N[C@H]6C(C)(C)[C@H](Oc7ccc(C#N)c(Cl)c7)C6(C)C)cn5)CC4)C3)cc1)=N[C@@H](Cc1ncco1)c1nnc(C)n1-2 [C, reference compound]
- Ratio of GI50's (VCaP cells): 2.6
- Ratio of GI50's [1]: 22.0

Structure (SMILES): Cc1sc2c(c1C)C(c1ccc(OC3CC4(CCN(c5ccc(C(=O)N[C@H]6CC[C@H](Oc7ccc(C#N)c(Cl)c7)CC6)nn5)CC4)C3)cc1)=N[C@@H](Cc1ncco1)c1nnc(C)n1-2 [E, reference compound]
- Ratio of GI50's (VCaP cells): 4.4
- Ratio of GI50's [1]: 4.7

Structure (SMILES): Cc1sc2c(c1C)C(c1ccc(C3CCC4(CC3)CCN(c3ncc(C(=O)N[C@H]5C(C)(C)[C@H](Oc6ccc(C#N)c(Cl)c6)C5(C)C)cn3)C4)cc1)=N[C@@H](Cc1ncco1)c1nnc(C)n1-2 [D, reference compound]
- Ratio of GI50's (VCaP cells): 6.5
- Ratio of GI50's [1]: 3.8

Structure (SMILES): COc1cc(O[C@H]2CC[C@H](NC(=O)c3ccc(N4CCC5(CCN(c6ccc(C7=N[C@@H](C)c8nnc(C)n8-c8sc(C)c(C)c87)cc6)CC56CCC6)C4)nn3)CC2)ccc1C#N (stereo partly shown) [Compound I-130]
- GI50 (VCaP cells; Homo sapiens, VCaP, 72 h): < 500 nM
- GI50 [1]: < 500 nM

Structure (SMILES): Cc1sc2c(c1C)C(c1ccc(C#CC3CC4(C3)CN(c3ccc(C(=O)N[C@H]5CC[C@H](Oc6ccc(C#N)c(Cl)c6)CC5)nn3)C4)cc1)=N[C@@H](Cc1ncco1)c1nnc(C)n1-2 [G, reference compound]
- Ratio of GI50's (VCaP cells): 1.5
- Ratio of GI50's [1]: 1.7

Structure (SMILES): Cc1sc2c(c1C)C(c1ccc(C3CCC4(CC3)CCN(c3ccc(C(=O)N[C@H]5CC[C@H](Oc6ccc(C#N)c(Cl)c6)CC5)nn3)C4)cc1)=N[C@@H](Cc1ncco1)c1nnc(C)n1-2 (stereo partly shown) [J, reference compound]
- Ratio of GI50's (VCaP cells): 3.0
- Ratio of GI50's [1]: 3.2
